Consider eight molecules from ChEMBL document CHEMBL3797086, “Synthesis and biological evaluation of novel structural hybrids of benzofuroxan derivatives and fluoroquinolones” (Eur J Med Chem, 2016).

For data set [1], the system named is Staphylococcus aureus. Nature of the data set: microbe, parasite or virus in culture. Particulars: 209p. The format is functional.
Data set [2] deals with Escherichia coli. Nature of the data set: microbe, parasite or virus in culture. Format: functional. The note with it: F-50, 4 h.
Data set [3] relates to Staphylococcus aureus. Put plainly: microbe, parasite or virus in culture. The format is functional. Particulars: 209p, 4 h.
The test system of data set [4] is Pseudomonas aeruginosa. Put plainly: microbe, parasite or virus in culture. The format is functional. Particulars: 9027.
The test system of data set [5] is Bacillus cereus. Put plainly: Potency index, ratio of lomefloxacin MBC to compound MBC for Bacillus cereus 8035. Format: functional.
The test system of data set [6] is Pseudomonas aeruginosa. Put plainly: microbe, parasite or virus in culture. Format: functional. Particulars: Pseudomonas aeruginosa, 9027, 4 h.
The next data set is described as follows: in vitro. The note with it: human.
For data set [7], the system named is Escherichia coli. Nature of the data set: microbe, parasite or virus in culture. The format is functional. The note with it: F-50.
The subject of data set [8] is Bacillus cereus. Put plainly: microbe, parasite or virus in culture. The format is functional. The note with it: 8035.
Data set [9] concerns Bacillus cereus. Put plainly: microbe, parasite or virus in culture. The note with it: Bacillus cereus, 8035, 4 h. The format is functional.
Where [10] appears, read: red blood cells (RBC), at 0.19 to 3.9 µg/mL.

≈ marks a conversion by molar mass, not a printed value.

On to `CCn1cc(C(=O)O)c(=O)c2cc(F)c(N3CCNC(C)C3)c(F)c21.O=[N+]([O-])c1c(Cl)cc2c(no[n+]2[O-])c1O` (stereo not drawn), for which the MIC against Staphylococcus aureus [1] worked out at 0.97 µg/mL; against Pseudomonas aeruginosa [4], 6.3 µg/mL; against Escherichia coli [7] it was 3.1 µg/mL; against Bacillus cereus [8], 0.97 µg/mL. Further, the MBC in the data set with Escherichia coli [2] was 12.5 µg/mL; in the data set on Staphylococcus aureus [3] it was 1.9 µg/mL; in the data set on Pseudomonas aeruginosa [6], 12.5 µg/mL; in the data set with Bacillus cereus [9], 1.5 µg/mL. In addition, the Ratio with Bacillus cereus [5] is listed as 8. Moreover, in the data set “in vitro” (setting [10]), the hemolysis at 1 h is ≤ 1%.
Consider `O=C(O)c1cn(C2CC2)c2cc(N3CCNCC3)c(F)cc2c1=O` [CIPROFLOXACIN], for which the results for the MIC in the data set with Staphylococcus aureus [1], against Pseudomonas aeruginosa [4] and in the data set on Bacillus cereus [8] were 0.19 µg/mL (≈ 0.573 µM), 0.39 µg/mL (≈ 1.18 µM) and 0.39 µg/mL (≈ 1.18 µM), respectively. For the same molecule, the MBC stood at 3.1 µg/mL (≈ 9.36 µM) with Escherichia coli [2], 1.5 µg/mL (≈ 4.53 µM) against Staphylococcus aureus [3], 3.1 µg/mL (≈ 9.36 µM) against Pseudomonas aeruginosa [6] and 6.3 µg/mL (≈ 19 µM) in the data set on Bacillus cereus [9]. In “in vitro” (erythrocyte), the hemolysis at 1 h was ≤ 1%.
For the molecule `CCn1cc(C(=O)O)c(=O)c2cc(F)c(N3CCNCC3)cc21` [NORFLOXACIN], the MIC against Staphylococcus aureus [1] came out at 0.39 µg/mL (≈ 1.22 µM); with Pseudomonas aeruginosa [4], 3.1 µg/mL (≈ 9.71 µM); against Escherichia coli [7], 0.19 µg/mL (≈ 0.595 µM); against Bacillus cereus [8] it was 1.5 µg/mL (≈ 4.7 µM). Besides, the MBC with Escherichia coli [2] was found to be 3.1 µg/mL (≈ 9.71 µM); with Staphylococcus aureus [3], 6.3 µg/mL (≈ 19.7 µM); against Pseudomonas aeruginosa [6], 25 µg/mL (≈ 78.3 µM); with Bacillus cereus [9] it was 3.1 µg/mL (≈ 9.71 µM). Further, the hemolysis at 1 h in “in vitro” (setting [10]) is ≤ 1%.
On to `CCn1cc(C(=O)O)c(=O)c2cc(F)c(N3CCNCC3)cc21.O=[N+]([O-])c1c(Cl)cc2c(no[n+]2[O-])c1O`, for which the figures for the MIC in the data set with Staphylococcus aureus [1], against Pseudomonas aeruginosa [4] and with Bacillus cereus [8] were 7.8 µg/mL, 31.3 µg/mL and 7.8 µg/mL, respectively. Further, the MBC is > 500 µg/mL against Escherichia coli [2], 31.3 µg/mL against Staphylococcus aureus [3], > 500 µg/mL in the data set with Pseudomonas aeruginosa [6] and 15.6 µg/mL against Bacillus cereus [9]. Further, in the data set “in vitro” (setting [10]), the hemolysis at 1 h is ≤ 1%.
Consider `CC1CN(c2c(F)c(N)c3c(=O)c(C(=O)O)cn(C4CC4)c3c2F)CC(C)N1.O=[N+]([O-])c1c(Cl)cc2c(no[n+]2[O-])c1O` (stereo not drawn), for which the MIC in the data set on Staphylococcus aureus [1] came to 0.39 µg/mL; against Pseudomonas aeruginosa [4], 3.1 µg/mL; against Escherichia coli [7], 1.5 µg/mL; in the data set on Bacillus cereus [8], 0.19 µg/mL. For the same molecule, the MBC against Escherichia coli [2] was 1.5 µg/mL; against Staphylococcus aureus [3] it was 0.39 µg/mL; in the data set with Pseudomonas aeruginosa [6] it was 6.3 µg/mL; in the data set with Bacillus cereus [9], 1.5 µg/mL. Further, the hemolysis at 1 h in the data set “in vitro” (setting [10]) is ≤ 1%.
Turning to `CCn1cc(C(=O)O)c(=O)c2cc(F)c(N3CCNC(C)C3)c(F)c21` (stereo not drawn) [LOMEFLOXACIN], the MIC against Staphylococcus aureus [1] turned out to be 0.78 µg/mL (≈ 2.22 µM); in the data set on Pseudomonas aeruginosa [4], 6.3 µg/mL (≈ 17.9 µM); against Escherichia coli [7], 3.1 µg/mL (≈ 8.82 µM); in the data set on Bacillus cereus [8], 6.3 µg/mL (≈ 17.9 µM). Moreover, the MBC in the data set on Escherichia coli [2] was determined as 6.3 µg/mL (≈ 17.9 µM); against Staphylococcus aureus [3], 3.1 µg/mL (≈ 8.82 µM); with Pseudomonas aeruginosa [6], 12.5 µg/mL (≈ 35.6 µM); in the data set with Bacillus cereus [9], 12.5 µg/mL (≈ 35.6 µM). Further, the hemolysis at 1 h in “in vitro” (setting [10]) is ≤ 1%.
On to `C[C@@H]1CN(c2c(F)c(N)c3c(=O)c(C(=O)O)cn(C4CC4)c3c2F)C[C@H](C)N1` [SPARFLOXACIN], for which the MIC in the data set with Staphylococcus aureus [1] was 0.19 µg/mL (≈ 0.484 µM); in the data set with Pseudomonas aeruginosa [4], 0.78 µg/mL (≈ 1.99 µM); with Escherichia coli [7], 0.19 µg/mL (≈ 0.484 µM); in the data set with Bacillus cereus [8], 0.19 µg/mL (≈ 0.484 µM). The MBC with Escherichia coli [2] was 3.1 µg/mL (≈ 7.9 µM); in the data set with Staphylococcus aureus [3] it was 0.39 µg/mL (≈ 0.994 µM); with Pseudomonas aeruginosa [6], 3.1 µg/mL (≈ 7.9 µM); in the data set on Bacillus cereus [9], 3.1 µg/mL (≈ 7.9 µM). Further, in “in vitro” (setting [10]), the hemolysis at 1 h was ≤ 1%.
On to `O=C(O)c1cn(C2CC2)c2cc(N3CCNCC3)c(F)cc2c1=O.O=[N+]([O-])c1c(Cl)cc2c(no[n+]2[O-])c1O`, for which the MIC worked out at 3.9 µg/mL against Staphylococcus aureus [1], 15.6 µg/mL against Pseudomonas aeruginosa [4] and 7.8 µg/mL with Bacillus cereus [8]. Also, the results for the MBC in the data set with Staphylococcus aureus [3], against Pseudomonas aeruginosa [6] and against Bacillus cereus [9] were 7.8 µg/mL, 31.3 µg/mL and 62.5 µg/mL, respectively.
